From article PMC3042617, “Identification of Two Novel HLA-A*0201-Restricted CTL Epitopes Derived from MAGE-A4” (Clinical and Developmental Immunology, 2011)

Key:
HLA-A*0201 molecule = HLA-A*0201 molecule (Homo sapiens, UniProt P04439, D140Y/D185E/D98H/E176V/E277Q/G131W/G231S/I119V/I121R/I166T/I218V/L300P/L318F/N151K/N90K/P208A/P217A/Q86G/Q94H/R138H/R169H/T345S); test: T2-cell-peptide binding test (affinity of peptide for HLA-A*0201); conditions: various peptide concentrations, 3 μg/mL human β2m, serum-free RPMI 1640, 37°C, 16 h, flow cytometry, three replicates, repeated three times
Experimental: The affinity of peptides for HLA-A*0201 was measured as described previously. Briefly, T2 cells were incubated with various concentrations of each peptide and 3 μg/mL human β2m in serum-free RPMI 1640 medium at 37°C for 16 h. Then, the cells were washed and stained with antiHLA-A2 mAb and FITC-labeled goat anti-mouse IgG. The expression of HLA-A*0201 on T2 cells was determined with FACS Calibur flow cytometer (Becton Dickinson, USA). For each peptide concentration, the percent mean fluorescence index (% MFI) increase of HLA-A*0201 molecule was calculated as follows: % MFI increase = [(MFI with the given peptide − MFI without peptide)/(MFI without peptide)] × 100.
Figure 1 Binding affinity of peptides for HLA-A*0201 molecule. T2 cells were incubated with indicated concentrations of the peptides in serum-free RPMI 1640 medium supplied with 3 μg/mL human β2m at 37°C for 16 h. And then the cells were stained with anti-HLA-A2 mAb and FITC-labeled goat antimouse IgG. The expression of HLA-A*0201 on T2 cells was determined with FACS Calibur flow cytometer. The peptides HBcAg18–27 and OVA257–264 were taken as positive control and negative control, respectively. Each sample was measured in three replicates and the experiment was repeated three times.

[1] = system: peptide/HLA-A*0201 complex; test: Peptide/HLA-A*0201 complex stability on T2 cells; format: binding, human; conditions: for % MFI increase at indicated time point (h): 0 / DC50 (half-time of the peptide/HLA-A*0201 complex): T2 cells, 37°C; for % MFI increase at indicated time point (h): 0: 100 μM peptide overnight, 100 ng/mL human β2m, Brefeldin A 10 μg/mL 1 h, then 0 h at 37°C, anti-HLA-A2 mAb staining; for DC50 (half-time of the peptide/HLA-A*0201 complex): 100 μM peptide, time points 0-8 h; for % MFI increase at indicated time point (h): 2 / % MFI increase at indicated time point (h): 4 / % MFI increase at indicated time point (h): 6 / % MFI increase at indicated time point (h): 8: as at 0 h; for % MFI increase at indicated time point (h): 2: then 2 h at 37°C after Brefeldin A; for % MFI increase at indicated time point (h): 4: then 4 h at 37°C after Brefeldin A; for % MFI increase at indicated time point (h): 6: then 6 h at 37°C after Brefeldin A; for % MFI increase at indicated time point (h): 8: then 8 h at 37°C after Brefeldin A
Experimental: As previously described, T2 cells (10^6/mL) were incubated overnight with 100 μM of each peptide in serum-free RPMI 1640 medium supplemented with 100 ng/mL human β2m at 37°C. Then, they were washed to remove free peptides and incubated with 10 μg/mL of Brefeldin A (Sigma-Aldrich, USA) for 1 h to block newly synthesized HLA-A*0201 molecules to be expressed on cell surface, washed and incubated at 37°C for 0, 2, 4, 6, or 8 h. Subsequently, the cells were stained with the anti-HLA-A2 mAb to evaluate the expression of HLA-A*0201 molecules.

LB1751-MEL cells [2] = test: Cytotoxicity (LDH release) of peptide-stimulated human PBMCs against LB1751-MEL; format: cell-based; conditions: PBMCs of healthy HLA-A*0201 donors, E/T 50/1, 25/1, 12.5/1, 4 h
Experimental: (§1) PBMCs were isolated from the buffy coat of heparinized whole blood samples of healthy HLA-A*0201 donors by density gradient centrifugation on the Ficoll-Paque PREMIUM (GE Healthcare Bio-Sciences AB, Uppsala, Sweden). The effector lymphocytes and dendritic cells (DCs) were prepared by our published method. All donors signed written, informed consent to provide whole blood samples used in the study. Approval of the study was obtained from the relevant ethical committees and was in accordance with the Declaration of Helsinki.
(§2) Three to five days after the final stimulation, the cytotoxic activity of the effector cells was evaluated by a lactate dehydrogenase release assay using Cytotox 96 Non-Radioactive Cytotoxicity Assay kit (Promega, USA). In brief, 1×10^4 target cells (LB1751-MEL, MCF-7 or MCF-7A4) in 50 μL RPMI 1640 containing 5% fetal calf serum (FCS) was placed in the wells of a 96-well round-bottom plate, then 50 μL of various concentrations of effector cells was added at different effector to target (E/T) ratios (50/1, 25/1, and 12.5/1). After 4 h incubation at 37°C, the supernatant was collected to assay lactate dehydrogenase (LDH) release by OD490 measurement according to the manufacturer's instructions. Experiments were performed in triplicates and the percentage of lysis was calculated as % Lysis = [(experimental LDH release − effector spontaneous LDH release − target spontaneous LDH release)/(target maximum LDH release − target spontaneous LDH release)] × 100.
Figure 2 Induction of peptide-specific CTLs from human PBMCs. PBMCs from healthy HLA-A*0201 donors were first stimulated with peptide-pulsed autologous DCs and then restimulated with peptide-pulsed autologous PBMCs. After three to five days of the final stimulation, the stimulated PBMCs were used as effector cells to detect their cytotoxic activity against tumor cells at the indicated E/T ratios in a cytotoxicity assay. The irrelevant peptide HBcAg18–27 was taken as negative control. Each sample was measured in three replicates and the experiment was repeated three times. […] (c) P1- and P3-stimulated PBMCs mediated lysis of MCF-7A4 cells. (d) P1- and P3-stimulated PBMCs mediated lysis of MCF-7 cells.

MCF-7A4 cells = test: Cytotoxicity (LDH release) of peptide-stimulated human PBMCs against MCF-7A4; format: cell-based; conditions: 4 h
Text: To establish a cell line expressing both HLA-A*0201 and MAGE-A4, MCF-7 cells were transfected with plasmid pCI-MAGEA4 using Lipofectamine 2000 (Invitrogen, USA) and then selected with G418. The expression of MAGE-A4 in the established cell line (designated MCF-7A4) was confirmed by reverse transcription-PCR and western blotting.
as §1, with “Approval of the study was obtained from the relevant ethical committees and was in accordance with the Declaration of Helsinki.” left out
Three to five days after the final stimulation, the cytotoxic activity of the effector cells was evaluated by a lactate dehydrogenase release assay using Cytotox 96 Non-Radioactive Cytotoxicity Assay kit (Promega, USA). […] Experiments were performed in triplicates and the percentage of lysis was calculated as % Lysis = [(experimental LDH release − effector spontaneous LDH release − target spontaneous LDH release)/(target maximum LDH release − target spontaneous LDH release)] × 100.
Figure 2 Induction of peptide-specific CTLs from human PBMCs. […] Each sample was measured in three replicates and the experiment was repeated three times. […]

LB1751-MEL cells [3] = test: In vivo induction of peptide-specific CTLs in HLA-A*0201/K^b transgenic mice; conditions: 100 μg peptide in IFA once, splenocytes after 10 days, restimulated in vitro 5 days with peptide and rmIL-2; LDH release
Experimental: as §2
HLA-A*0201/K^b mice were immunized with 100 μg of various peptides prepared in IFA or IFA emulsion without peptide as a control. After 10 days, mice were sacrificed and splenocytes were cultured for 5 days with 10 units/mL recombinant murine interleukin-2 (rmIL-2) and […]. And then, effector cells were counted and tested for cytotoxic activity in a cytotoxicity assay.
Figure 3 In vivo induction of peptide-specific CTLs. […]

ALPTTISFT [Peptide P4]
Binding affinity for HLA-A*0201 molecule (increase of HLA-A*0201 expression on T2 cells) (HLA-A*0201 molecule): lowest affinity | % MFI increase at indicated time point (h): 0 [1]: 98.80% | DC50 (half-time of the peptide/HLA-A*0201 complex) [1]: 2 h | % MFI increase at indicated time point (h): 2 [1]: 48.73% | % MFI increase at indicated time point (h): 4 [1]: 30.79% | % MFI increase at indicated time point (h): 6 [1]: 21.01% | % MFI increase at indicated time point (h): 8 [1]: 18.52% | Lysis of LB1751-MEL target cells by peptide-stimulated PBMCs (LB1751-MEL cells [2]): could not lyse

KVLEHVVRV [Peptide P1]
Binding affinity for HLA-A*0201 molecule (increase of HLA-A*0201 expression on T2 cells) (HLA-A*0201 molecule): lowest affinity | % MFI increase at indicated time point (h): 0 [1]: 126.16% | DC50 (half-time of the peptide/HLA-A*0201 complex) [1]: 4 to 6 h | % MFI increase at indicated time point (h): 2 [1]: 95.74% | % MFI increase at indicated time point (h): 4 [1]: 74.98% | % MFI increase at indicated time point (h): 6 [1]: 60.29% | % MFI increase at indicated time point (h): 8 [1]: 49.07% | Lysis of LB1751-MEL target cells by peptide-stimulated PBMCs (LB1751-MEL cells [2]): could significantly lyse | Lysis of MCF-7A4 cells (HLA-A*0201 and MAGE-A4 expressing) by peptide-primed effector cells (MCF-7A4 cells): could also lyse | Lysis of LB1751-MEL target cells by splenocytes of peptide-inoculated mice (LB1751-MEL cells [3]): could lyse

OVA257–264: control peptide, negative control in HLA-A*0201 binding test (ESIINFEK; UniProt P01012 257-264, looked up, fragment) [reference compound]
Binding affinity for HLA-A*0201 molecule (increase of HLA-A*0201 expression on T2 cells) (HLA-A*0201 molecule): did not increase

FLWGPRALA [Peptide P3]
Binding affinity for HLA-A*0201 molecule (increase of HLA-A*0201 expression on T2 cells) (HLA-A*0201 molecule): highest affinity | % MFI increase at indicated time point (h): 0 [1]: 285.66% | DC50 (half-time of the peptide/HLA-A*0201 complex) [1]: 8 h | % MFI increase at indicated time point (h): 2 [1]: 230.85% | % MFI increase at indicated time point (h): 4 [1]: 192.71% | % MFI increase at indicated time point (h): 6 [1]: 170.05% | % MFI increase at indicated time point (h): 8 [1]: 150.56% | Lysis of LB1751-MEL target cells by peptide-stimulated PBMCs (LB1751-MEL cells [2]): could significantly lyse | Lysis of MCF-7A4 cells (HLA-A*0201 and MAGE-A4 expressing) by peptide-primed effector cells (MCF-7A4 cells): could also lyse | Lysis of LB1751-MEL target cells by splenocytes of peptide-inoculated mice (LB1751-MEL cells [3]): could lyse

ALLEEEEGV [Peptide P2]
Binding affinity for HLA-A*0201 molecule (increase of HLA-A*0201 expression on T2 cells) (HLA-A*0201 molecule): lower affinity | % MFI increase at indicated time point (h): 0 [1]: 170.07% | DC50 (half-time of the peptide/HLA-A*0201 complex) [1]: 2 h | % MFI increase at indicated time point (h): 2 [1]: 84.13% | % MFI increase at indicated time point (h): 4 [1]: 57.09% | % MFI increase at indicated time point (h): 6 [1]: 42.34% | % MFI increase at indicated time point (h): 8 [1]: 31.19% | Lysis of LB1751-MEL target cells by peptide-stimulated PBMCs (LB1751-MEL cells [2]): could not lyse
